Series [1] concerns Leishmania donovani. The experiment in a line: Antileishmanial activity against Leishmania donovani MHOM/IN/00/DEVI promastigotes assessed as reduction in parasite growth incubated for 72 hrs by MTT assay. Type of series: functional, organism-based.
A short description of series [2]: Selectivity index, ratio of CC50 for human HepG2 cells to IC50 for Leishmania donovani MHOM/IN/00/DEVI promastigotes. Type of series: functional.
Series [3] is described as follows: Cytotoxicity against human HepG2 cells assessed as reduction in cell viability incubated for 72 hrs by MTT assay. The series is classed as cell-based. (In general: Tetrazolium dyes change colour on reduction, which living cells bring about.)
The nature of series [4]: Cytotoxicity against human THP1 cells assessed as reduction in cell viability incubated for 72 hrs by MTT assay. Particulars: THP-1 cells. The series is classed as cell-based.
Series [5] has as its system Leishmania donovani. The experiment in a line: Antileishmanial activity against Leishmania donovani MHOM/IN/00/DEVI intracellular amastigotes infected in human THP1 cells assessed as reduction in parasite-infected macrophages incubated for 120 hrs by Giemsa staining based microscopy. Particulars: THP-1, 120 h. Type of series: functional, organism-based.

A word on the IC50: it is the concentration that inhibits the measured activity by half. In general, CC50 refers to the concentration giving 50% cytotoxicity.

Turning to `Nc1ccccc1Sc1cc(=O)[nH]c2c([N+](=O)[O-])cccc12`, the IC50 in series [1] is more than 10 µM.
On to `O=c1cc(Sc2cccc(F)c2)c2cccc([N+](=O)[O-])c2[nH]1`, for which the IC50 in series [1] was more than 10 µM.
Still for that read-out and setting: the figure for `O=c1cc(Sc2cccc(Cl)c2)c2cccc([N+](=O)[O-])c2[nH]1` is more than 10 µM; for `O=c1cc(Oc2cccc(Br)c2)c2cccc([N+](=O)[O-])c2[nH]1` it is more than 10 µM.
For `O=c1cc(Oc2ccc(Cl)cc2)c2cccc([N+](=O)[O-])c2[nH]1`, the IC50 in series [1] amounted to 3.7 µM. Also, the “Ratio CC50/IC50” value in series [2] is more than 1.1. Further, the CC50 at 72 h in series [3] is more than 3.9 µM.
As to `O=c1cc(Sc2ccc(C(F)(F)F)cc2)c2cccc([N+](=O)[O-])c2[nH]1`, the results for the IC50 in series [1] and in series [5] were 3.8 µM and more than 12.5 µM, respectively. Also, the CC50 at 72 h in series [4] and in series [3] was more than 12.5 µM each time. For the same compound, the “Ratio CC50/IC50” value in series [2] was more than 3.3.
Take `COc1ccc(Oc2cc(=O)[nH]c3c([N+](=O)[O-])cccc23)cc1`: the IC50 in series [1] was more than 10 µM.
On to `Cc1ccc(Oc2cc(=O)[nH]c3c([N+](=O)[O-])cccc23)cc1`, for which the IC50 in series [1] was 6 µM; in series [5] it was more than 12.5 µM. Further, the CC50 at 72 h is more than 12.5 µM in series [4] and more than 25 µM in series [3]. Further, in series [2], the “Ratio CC50/IC50” value is on record as more than 4.2.
Consider `COc1cccc(Oc2cc(=O)[nH]c3c([N+](=O)[O-])cccc23)c1`, for which the IC50 in series [1] was more than 10 µM.
Regarding `O=c1cc(Oc2ccccc2C(F)(F)F)c2cccc([N+](=O)[O-])c2[nH]1`, the IC50 in series [1] came out at 10 µM. Besides, in series [2], the “Ratio CC50/IC50” value is reported as more than 1.6. In addition, the CC50 at 72 h in series [3] was more than 15.6 µM.
Take `O=c1cc(N2CCNCC2)c2cccc([N+](=O)[O-])c2[nH]1`: the IC50 in series [1] is more than 50 µM. For the same compound, the 50% cytotoxic concentration (CC50) at 72 h in series [3] worked out at 2.4 µM.
As to `O=c1cc(Oc2ccccc2)c2cccc([N+](=O)[O-])c2[nH]1`, the IC50 in series [1] came out at 14 µM. Further, the “Ratio CC50/IC50” value in series [2] is more than 0.9. The CC50 at 72 h in series [3] is more than 12.5 µM.
Regarding `O=c1cc(Oc2cccc(F)c2)c2cccc([N+](=O)[O-])c2[nH]1`, in series [1], the IC50 was more than 10 µM.
For `COc1ccccc1Sc1cc(=O)[nH]c2c([N+](=O)[O-])cccc12`, the IC50 in series [1] is more than 10 µM.
Consider `N=C(N)c1ccc(OCCCCCOc2ccc(C(=N)N)cc2)cc1` [PENTAMIDINE], for which, in series [4], the CC50 at 72 h was determined as 31.2 µM. Further, in series [2], the “Ratio CC50/IC50” value is on record as 0.4. Also, the IC50 in series [5] was more than 20 µM.
On to `COc1cccc(Sc2cc(=O)[nH]c3c([N+](=O)[O-])cccc23)c1`, for which, in series [1], the IC50 was more than 10 µM.
As to `NCCOCCOCCNc1cc(=O)[nH]c2c([N+](=O)[O-])cccc12`, the IC50 in series [1] is more than 50 µM. For the same compound, in series [3], the CC50 at 72 h is 123 µM.
As for `O=c1cc(Sc2ccc(Br)cc2)c2cccc([N+](=O)[O-])c2[nH]1`, the IC50 in series [1] was 4.2 µM. Besides, in series [2], the “Ratio CC50/IC50” value is more than 0.9. Also, the CC50 at 72 h in series [3] was more than 3.9 µM.
Take `CCCCNc1cc(=O)[nH]c2c([N+](=O)[O-])cccc12`: the IC50 in series [1] was 21.4 µM. Moreover, the CC50 at 72 h in series [3] is 12.2 µM.
For the compound `O=c1cc(Oc2cccc(C(F)(F)F)c2)c2cccc([N+](=O)[O-])c2[nH]1`, the IC50 in series [1] was more than 10 µM. Further, in series [2], the “Ratio CC50/IC50” value is given as more than 0.7. Besides, the CC50 at 72 h in series [3] is more than 7.8 µM.
For the compound `O=c1cc(Sc2ccccc2F)c2cccc([N+](=O)[O-])c2[nH]1`, the IC50 in series [1] was more than 10 µM.
For the compound `Nc1cc(=O)[nH]c2c([N+](=O)[O-])cccc12`, the IC50 in series [1] was more than 50 µM. The CC50 at 72 h in series [3] is more than 125 µM.
Consider `Cc1ccc(Sc2cc(=O)[nH]c3c([N+](=O)[O-])cccc23)cc1`, for which, in series [1], the IC50 was more than 10 µM.
For `O=c1cc(Sc2ccc(Cl)cc2Cl)c2cccc([N+](=O)[O-])c2[nH]1`, in series [1], the IC50 was determined as 3.8 µM. For the same compound, the “Ratio CC50/IC50” value in series [2] was more than 2.1. Also, the CC50 at 72 h in series [3] was more than 7.8 µM.
`O=c1cc(Sc2cccc(C(F)(F)F)c2)c2cccc([N+](=O)[O-])c2[nH]1`: the IC50 in series [1] was more than 10 µM.
On to `O=c1cc(N2CCOCC2)c2cccc([N+](=O)[O-])c2[nH]1`, for which the IC50 in series [1] came out at 42.1 µM. The CC50 at 72 h in series [3] came out at 86.2 µM.
In the case of `Cc1cccc(Oc2cc(=O)[nH]c3c([N+](=O)[O-])cccc23)c1`, the IC50 in series [1] was more than 10 µM.
As for `O=c1cc(Sc2ccccc2C(F)(F)F)c2cccc([N+](=O)[O-])c2[nH]1`, the IC50 in series [1] is 3.5 µM. Moreover, the “Ratio CC50/IC50” value in series [2] was more than 2.22. The CC50 at 72 h in series [3] was more than 7.8 µM.
In the case of `COc1ccc(Sc2cc(=O)[nH]c3c([N+](=O)[O-])cccc23)cc1`, the IC50 in series [1] was more than 10 µM.
As to `O=c1cc(Oc2ccccc2Cl)c2cccc([N+](=O)[O-])c2[nH]1`, the IC50 in series [1] was more than 10 µM.
Same read-out and setting: for `Cc1ccccc1Sc1cc(=O)[nH]c2c([N+](=O)[O-])cccc12` the value was more than 10 µM.
Regarding `O=c1cc(Nc2ccccc2)c2cccc([N+](=O)[O-])c2[nH]1`, in series [1], the IC50 is more than 50 µM. In series [3], the CC50 at 72 h came out at 1.8 µM.
For `Cc1cc(Oc2cc(=O)[nH]c3c([N+](=O)[O-])cccc23)ccc1Cl`, the IC50 in series [1] is 6 µM. In series [2], the “Ratio CC50/IC50” value was more than 2.6. Also, the CC50 at 72 h in series [3] was more than 15.6 µM.
`O=c1cc(Oc2ccc(Br)cc2)c2cccc([N+](=O)[O-])c2[nH]1`: the IC50 in series [1] is more than 5 µM.
`COc1cccc2c1C(=O)c1c(O)c3c(c(O)c1C2=O)C[C@@](O)(C(=O)CO)C[C@@H]3O[C@H]1C[C@H](N)[C@H](O)[C@H](C)O1` [DOXORUBICIN]: in series [4], the CC50 at 72 h was 0.008 µM.
Take `O=c1cc(Oc2ccccc2F)c2cccc([N+](=O)[O-])c2[nH]1`: in series [1], the IC50 was more than 10 µM.
`O=c1cc(Sc2ccccc2)c2cccc([N+](=O)[O-])c2[nH]1`: the IC50 in series [1] came out at 9.3 µM. Moreover, in series [2], the “Ratio CC50/IC50” value is given as more than 1.3. Moreover, in series [3], the CC50 at 72 h is more than 12.5 µM.
For `O=c1cc(Oc2ccc(C(F)(F)F)cc2)c2cccc([N+](=O)[O-])c2[nH]1`, in that order: 8.4 µM, more than 0.9 and more than 7.8 µM.
`O=c1cc(Oc2ccccc2Br)c2cccc([N+](=O)[O-])c2[nH]1`: the IC50 in series [1] came out at 8.1 µM. Besides, the “Ratio CC50/IC50” value in series [2] is reported as more than 0.96. Besides, the cytotoxic concentration (CC50) at 72 h in series [3] is more than 7.8 µM.
In the case of `O=c1cc(Sc2ccc(Cl)cc2)c2cccc([N+](=O)[O-])c2[nH]1`, in series [1], the IC50 is more than 10 µM.
Consider `COc1ccccc1Oc1cc(=O)[nH]c2c([N+](=O)[O-])cccc12`, for which the IC50 in series [1] was more than 10 µM.
On to `O=c1cc(Oc2cccc(Cl)c2)c2cccc([N+](=O)[O-])c2[nH]1`, for which the IC50 in series [1] was more than 10 µM.
For the compound `CC(C)(C)OC(=O)NCCOCCOCCNc1cc(=O)[nH]c2c([N+](=O)[O-])cccc12`, in series [1], the IC50 is more than 50 µM. The CC50 at 72 h in series [3] was found to be 34.8 µM.
As for `Cc1ccccc1Oc1cc(=O)[nH]c2c([N+](=O)[O-])cccc12`, in series [1], the IC50 is more than 10 µM.
As for `O=c1cc(Sc2ccccc2Cl)c2cccc([N+](=O)[O-])c2[nH]1`, in series [1], the IC50 came to 3.5 µM. Moreover, the “Ratio CC50/IC50” value in series [2] is recorded as more than 0.4. In addition, the CC50 at 72 h in series [3] was more than 1.25 µM.
With `O=c1cc(Sc2ccc(F)cc2)c2cccc([N+](=O)[O-])c2[nH]1`, the IC50 in series [1] is more than 10 µM.
